Data from ChEMBL document CHEMBL5346939, “Targeting glutaminase 1 (GLS1) by small molecules for anticancer therapeutics” (Eur J Med Chem, 2023).

What was measured:
[1] = Inhibition of human Glutaminase
[2] = molecular target: T1, Glutaminase kidney isoform, mitochondrial (Homo sapiens, UniProt O94925); assay: Inhibition of N-terminal His-tagged GLS1 (unknown origin) expressed in Escherichia coli BL21 (DE3) preincubated for 20 mins and measured after 2 hrs
T1 sequence (O94925 whole entry): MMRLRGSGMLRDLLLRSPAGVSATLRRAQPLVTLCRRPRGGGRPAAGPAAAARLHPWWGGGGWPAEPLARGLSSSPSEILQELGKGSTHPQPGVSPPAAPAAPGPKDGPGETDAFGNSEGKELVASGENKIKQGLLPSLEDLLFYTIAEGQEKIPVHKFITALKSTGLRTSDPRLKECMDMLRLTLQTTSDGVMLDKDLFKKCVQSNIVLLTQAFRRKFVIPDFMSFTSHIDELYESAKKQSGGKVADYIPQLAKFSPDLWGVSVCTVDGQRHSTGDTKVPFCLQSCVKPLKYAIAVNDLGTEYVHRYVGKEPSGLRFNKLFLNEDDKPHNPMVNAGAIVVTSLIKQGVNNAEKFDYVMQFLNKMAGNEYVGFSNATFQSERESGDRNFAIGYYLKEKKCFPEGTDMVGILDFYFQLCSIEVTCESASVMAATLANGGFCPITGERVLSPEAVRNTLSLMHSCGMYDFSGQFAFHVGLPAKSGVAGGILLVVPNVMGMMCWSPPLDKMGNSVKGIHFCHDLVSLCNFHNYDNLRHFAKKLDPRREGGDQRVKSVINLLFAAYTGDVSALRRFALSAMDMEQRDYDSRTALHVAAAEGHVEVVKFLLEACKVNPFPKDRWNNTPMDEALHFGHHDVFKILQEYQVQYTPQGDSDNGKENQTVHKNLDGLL

[3] = Inhibition of 6His-tagged recombinant mouse GAC expressed in Escherichia coli preincubated for 10 mins and measured after 45 mins by chromatographic analysis
[4] = Inhibition of N-terminal Histidine-tagged recombinant mouse GAC incubated for 1 hrs by fluorescence based analysis
[5] = molecular target: T1, Glutaminase kidney isoform, mitochondrial; assay: Inhibition of full length C terminal His-tagged human KGA expressed in Escherichia coli BL-21 DE3
HCC1806 = assay: Cytotoxicity against human HCC1806 cells assessed as reduction in cell viability measured after 48 hrs by MTT assay; type: functional, cell-based; settings: HCC1806, 48 h
[6] = Inhibition of full length C-terminal His-tagged rat Glutaminase expressed in Escherichia coli BL21 DE3 incubated for 12 hrs
SW1990 = assay: Antiproliferative activity against human SW1990 cells assessed as reduction in cell viability measured after 72 hrs by CCK-8 assay; type: functional, cell-based; settings: SW1990, 72 h
[7] = Lipophilicity, logP of the compound at pH 7.4 by HPLC analysis; type: physicochemical; settings: buffer
[8] = Inhibition of N-terminal 6His-tagged recombinant rat glutaminase expressed in Escherichia coli BL-21 DE3 measured after 20 mins by colorimetric analysis
[9] = molecular target: T1, Glutaminase kidney isoform, mitochondrial; assay: Inhibition of C-terminal His-tagged human recombinant KGA transformed in Escherichia coli BL21 DE3 at pH 7.4 incubated for 3 hrs
[10] = Inhibition of human recombinant Glutaminase

CN1CCc2cccc3c2[C@H]1Cc1ccc(O)c(O)c1-3 [APOMORPHINE]
IC50 [1]: 0.6 µM

O=c1c2ccccc2[se]n1-c1ccccc1 [EBSELEN]
IC50 [1]: 0.009 µM

O=C(Cc1ccccc1)Nc1nnc([C@@H]2CCC[C@@H](c3nnc(NC(=O)Cc4ccccc4)s3)C2)s1
IC50 [2]: 0.1 µM

CC1(C)CC(=O)C2=C(C1)c1c(ccc3ccccc13)NC2c1ccc(C(C)(C)C)cc1 (stereo not drawn)
IC50 [3]: ~10 µM

CC(C)c1ccc(C2Nc3ccc4ccccc4c3C3=C2C(=O)CC(C)(C)C3)cc1 (stereo not drawn)
IC50 [3]: ~20 µM

CN(C)c1ccc(C2Nc3ccc4cc(C(C)(C)C)ccc4c3C3=C2C(=O)CC(C)(C)C3)cc1Br (stereo not drawn)
IC50 [4]: 4.5 µM

CN(C)c1ccc(C2Nc3ccc4ccccc4c3C3=C2C(=O)CC(C)(C)C3)cc1 (stereo not drawn)
IC50 [3]: ~50 µM

C=C1CC[C@]2(C(=O)O[C@@H]3O[C@H](CO[C@@H]4O[C@H](CO)[C@@H](O)[C@H](O)[C@H]4O)[C@@H](O)[C@H](O)[C@H]3O)CC[C@]3(C)C(=CCC4[C@@]5(C)CC[C@H](O[C@@H]6OC[C@H](O[C@@H]7OC[C@H](O)[C@H](O)[C@H]7O[C@@H]7O[C@@H](C)[C@H](O)[C@@H](O)[C@H]7O)[C@H](O)[C@H]6O)C(C)(C)C5CC[C@]43C)C2C1 (stereo partly drawn)
IC50 [5]: 6.1 µM
IC50 (HCC1806): 24.9 µM

CC1(C)CCc2c(ccc3c2O[C@@H]2c4ccc(O)cc4O[C@H]3[C@H]2O)O1
IC50 [6]: 36.7 µM

O=C(Cc1ccccc1)Nc1nnc(CCSCCc2nnc(NC(=O)Cc3ccccc3)s2)s1
IC50 (SW1990): 35.3 µM
logP [7]: 3.73
IC50 [8]: 3.3 µM

O=c1c2ccccc2[se]n1CCCCCCn1[se]c2ccccc2c1=O
IC50 [9]: 0.2 µM

COc1ccc2c(c[n+](C)c3c4cc5c(cc4ccc23)OCO5)c1OC [CHELERYTHRINE CHLORIDE]
IC50 [1]: 0.03 µM

O=C(Cc1cccc(OC(F)(F)F)c1)Nc1ccc(CCCCc2nnc(NC(=O)Cc3ccccn3)s2)nn1
IC50 (SW1990): 13.1 µM
logP [7]: 2.72

CN(C)c1ccc(C2Nc3ccc4ccccc4c3C3=C2C(=O)CC(C)(C)C3)cc1Br (stereo not drawn)
IC50 [10]: ~9.3 µM
